Tested on: HepG2/C3A
Experiment: Drug-induced liver injury (DILI) simulated by adjusting air supply from the well bottom, island-shaped 3Ds on PDMS
Format: cell-based, human
Details: 24 h exposure, highest concentration 20 mM
Method: Compounds were dissolved at 200 times the highest test concentration in 100% DMSO. […] The final DMSO concentration was set constant and less than 0.4% over the tested dilutions. […] Therefore, serially-diluted compounds were finally diluted in situ at 1/2 and mixed by a gentle rocking motion a few times. […]
Cells grown as island 3Ds in the gas-permeable PDMS membrane were exposed to drug treatments described above. […] The plates were equilibrated to 5% CO2 and 3TC and measured by Opera (PerkinElmer).
For detailed global image acquisition, a 20× objective was used in spinning-disc confocal mode. […] Then the cell area was estimated for selected nuclei in the regions, and TMRM emission intensity in the cell regions was calculated for the selected cells over the 4 designated fields per well. […] For the dose-response and Z′ values, the intensity values were analyzed on a projection image representing the peak intensity values for each of 4 Z-planes projected onto a single image. For the detailed analysis of the entire 3Ds, each Z-plane was individually analyzed.

CC(=O)Nc1ccc(O)cc1 [Acetaminophen, acetaminophen]
toxicity response (dose response curve) (3Ds on PDMS membrane left entirely bare): apparently unresponsive | toxicity response (dose response curve) (3Ds on PDMS membrane partially-sealed): suggesting a DILI effect

From US20160215267A1, “METHODS FOR GENERATING 3D CELL CULTURE MODEL IN HIGH RESPIRATION ENVIRONMENTS FOR HIGH-CONTENT ANALYSES AND SCREENING” (IKKO-ZU CORPORATION, priority 2015, published 2016)
